This test concerns the target T1, human Cystic Fibrosis Transmembrane Conductance Regulator (CFTR) harboring the ΔF508 mutation (Homo sapiens, UniProt P13569, DEL508-508).
T1 construct: expressed in transfected cells; host or cells: H441 carcinoma line (G418-selected)
Nature of the test: H441 cell ΔF508-CFTR-HRP cell surface assay (Emax and EC50). It is filed as cell-based. Particulars: for Emax: NCI-H441, NA = Not active. The procedure, abridged: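 H441 and 41o- bronchial epithelial cells expressing ΔF508-CFTR with an extracellular-loop-4 HRP tag were treated with a 15-point compound series (24.5–0.001 μM) for two nights, H441 at 27° C, 41o- at 37° C with 0.0005 mg/ml doxycycline. Surface HRP luminescence read; % of maximum VX809 signal and EC50 derived.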

Molecules are shown by their SMILES.

T1 sequence (P13569 with tags, fused parts or gaps DEL508-508): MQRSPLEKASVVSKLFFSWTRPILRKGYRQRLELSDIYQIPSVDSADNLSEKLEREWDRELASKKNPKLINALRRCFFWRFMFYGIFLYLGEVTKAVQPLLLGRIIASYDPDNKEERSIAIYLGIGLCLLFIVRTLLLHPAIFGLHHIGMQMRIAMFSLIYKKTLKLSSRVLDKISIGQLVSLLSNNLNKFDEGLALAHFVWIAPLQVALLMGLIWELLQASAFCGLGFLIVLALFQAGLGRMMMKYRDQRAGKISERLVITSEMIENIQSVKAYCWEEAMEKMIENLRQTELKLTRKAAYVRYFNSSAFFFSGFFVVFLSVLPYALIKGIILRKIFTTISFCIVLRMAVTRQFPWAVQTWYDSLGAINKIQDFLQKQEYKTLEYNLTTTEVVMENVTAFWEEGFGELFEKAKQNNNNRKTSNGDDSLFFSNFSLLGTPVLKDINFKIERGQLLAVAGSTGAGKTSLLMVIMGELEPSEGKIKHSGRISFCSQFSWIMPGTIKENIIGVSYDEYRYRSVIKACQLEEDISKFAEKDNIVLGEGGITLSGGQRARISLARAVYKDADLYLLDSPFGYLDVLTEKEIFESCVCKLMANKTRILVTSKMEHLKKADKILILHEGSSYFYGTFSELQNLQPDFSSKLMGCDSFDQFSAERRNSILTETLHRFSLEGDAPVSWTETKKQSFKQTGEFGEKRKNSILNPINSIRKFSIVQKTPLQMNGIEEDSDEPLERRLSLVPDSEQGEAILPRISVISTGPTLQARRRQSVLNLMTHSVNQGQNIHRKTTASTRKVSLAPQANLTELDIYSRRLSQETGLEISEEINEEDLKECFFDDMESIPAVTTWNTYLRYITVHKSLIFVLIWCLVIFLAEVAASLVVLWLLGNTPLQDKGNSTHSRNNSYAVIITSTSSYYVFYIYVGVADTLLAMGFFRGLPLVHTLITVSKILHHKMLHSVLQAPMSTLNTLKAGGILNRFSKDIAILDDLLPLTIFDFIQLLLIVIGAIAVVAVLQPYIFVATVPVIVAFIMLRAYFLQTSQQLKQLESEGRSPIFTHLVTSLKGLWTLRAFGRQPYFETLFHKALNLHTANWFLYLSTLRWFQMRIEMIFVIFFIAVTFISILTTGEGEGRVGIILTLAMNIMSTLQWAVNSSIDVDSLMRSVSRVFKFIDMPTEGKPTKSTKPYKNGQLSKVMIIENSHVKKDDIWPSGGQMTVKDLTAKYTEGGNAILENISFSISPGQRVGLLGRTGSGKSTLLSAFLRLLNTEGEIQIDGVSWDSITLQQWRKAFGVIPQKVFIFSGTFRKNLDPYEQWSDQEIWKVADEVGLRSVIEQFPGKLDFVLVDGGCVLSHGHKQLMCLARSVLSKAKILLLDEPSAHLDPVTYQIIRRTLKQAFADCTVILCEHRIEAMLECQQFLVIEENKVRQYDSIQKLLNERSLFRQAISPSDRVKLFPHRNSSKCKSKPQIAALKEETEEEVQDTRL

Consider `COc1ccc2c(OCc3ccc(C(F)(F)F)cc3)c(C(=O)N[C@H](C(=O)O)C3CCCC3)ccc2c1` [Example 160, (S)-2-cyclopentyl-2-(6-methoxy-1-((4-(trifluoromethyl)benzyl)oxy)-2-naphthamido)acetic Acid], for which the EC50 was 3.3 µM and the Emax was determined as 47.2%. Taken in the same sequence, the figures for `COc1ccc2c(OCc3ccc(C(F)(F)F)cc3)c(C(=O)N[C@@H](CC(C)(C)C)C(=O)O)ccc2c1` [Example 161, (S)-2-(6-methoxy-1-((4-(trifluoromethyl)benzyl)oxy)-2-naphthamido)-4,4-dimethylpentanoic Acid] were 3.2 µM and 47.7%. On to `COc1ccc2c(OCc3ccc(SC(F)(F)F)cc3)c(C(=O)N[C@H](C(=O)O)C3CCCC3)ccc2c1` [Example 162, (S)-2-cyclopentyl-2-(6-methoxy-1-((4-((trifluoromethyl)thio)benzyl)oxy)-2-naphthamido)acetic Acid], for which the concentration for a half-maximal effect (EC50) was 1.6 µM and the Emax is 26%.

`CC(C)(SCC1CC1(F)F)[C@H](NC(=O)c1ccc2ccccc2c1OCc1ccc(S(C)(=O)=O)cc1)C(=O)O` (stereo partly drawn) [Example 166, (2R)-3-(((2,2-difluorocyclopropyl)methyl)thio)-3-methyl-2-(1-((4-(methylsulfonyl)benzyl)oxy)-2-naphthamido)butanoic Acid] showed an Emax of 6.6%.

Turning to `CC(C)(SC1CCCC1)[C@H](NC(=O)c1ccc2ccccc2c1OCc1ccc(S(C)(=O)=O)cc1)C(=O)O` [Example 171], the Emax amounted to 16.4%.

Compound `CC(C)(S[C@@H]1C[C@@H]2CC[C@H]1C2)[C@H](NC(=O)c1ccc2ccccc2c1OCc1ccc(S(C)(=O)=O)cc1)C(=O)O` [Example 176, (R)-3-(((1S,2R,4R)-bicyclo[2.2.1]heptan-2-yl)thio)-3-methyl-2-(1-((4-(methylsulfonyl)benzyl)oxy)-2-naphthamido)butanoic Acid] registered an Emax of 38.4%. Turning to `CC(C)(C)C[C@H](NC(=O)c1ccc2ccccc2c1OC[C@H]1CC[C@@H](C(F)(F)F)CC1)C(=O)O` [Example 180, (S)-4,4-dimethyl-2-(1-(((1s,4R)-4-(trifluoromethyl)cyclohexyl)methoxy)-2-naphthamido)pentanoic Acid], a half-maximal effect (EC50) was put at 10 µM and the Emax came out at 70.7%. The matching figures for `O=C(NC(C(=O)O)C(C(F)(F)F)C(F)(F)F)c1ccc2ccccc2c1OCc1ccc(C(F)(F)F)cc1` (stereo not shown) [Example 181, 4,4,4-trifluoro-3-(trifluoromethyl)-2-(1-((4-(trifluoromethyl)benzyl)oxy)-2-naphthamido)butanoic Acid]: 13.7 µM and 93.2%. In turn, `O=C(NC(C(=O)O)C(C(F)(F)F)C(F)(F)F)c1ccc2cc(F)ccc2c1OCc1ccc(C(F)(F)F)cc1` (stereo not shown) [Example 182, 4,4,4-trifluoro-2-(6-fluoro-1-((4-(trifluoromethyl)benzyl)oxy)-2-naphthamido)-3-(trifluoromethyl)butanoic Acid] registered a 50% effective concentration (EC50) of 4 µM and a maximal effect (Emax) of 31.4%.

`O=C(NC(C(=O)O)C(C(F)(F)F)C(F)(F)F)c1ccc2ccccc2c1OCC1CCCCC1` (stereo not shown) [Example 183, 2-(1-(cyclohexylmethoxy)-2-naphthamido)-4,4,4-trifluoro-3-(trifluoromethyl)butanoic Acid] came in with an EC50 of 3.2 µM and a maximal effect (Emax) of 63.9%.

`NC12CCC(C(NC(=O)c3ccc4cc(F)ccc4c3OCc3ccc(OC(F)(F)F)cc3)C(=O)O)(CC1)CC2` (stereo not shown) [Example 184, 2-(4-aminobicyclo[2.2.2]octan-1-yl)-2-(6-fluoro-1-((4-(trifluoromethoxy)benzyl)oxy)-2-naphthamido)acetic Acid] showed an Emax of 11.7%. Compound `NC12CCC(C(NC(=O)c3ccc4cc(F)ccc4c3OCc3ccc(C(F)(F)F)cc3)C(=O)O)(CC1)CC2` (stereo not shown) [Example 185, 2-(4-aminobicyclo[2.2.2]octan-1-yl)-2-(6-fluoro-1-((4-(trifluoromethyl)benzyl)oxy)-2-naphthamido)acetic Acid] gave a maximal effect (Emax) of 14%.

The compound `CC(C)(C)C[C@H](NC(=O)c1ccc2cc(N)ccc2c1OCc1ccc(C(F)(F)F)cc1)C(=O)O` [Example 186, (S)-2-(6-amino-1-((4-(trifluoromethyl)benzyl)oxy)-2-naphthamido)-4,4-dimethylpentanoic Acid] displayed a half-maximal effective concentration (EC50) of 2.7 µM and an Emax of 46.6%. Taken in the same sequence, the figures for `Nc1ccc2c(OCc3ccc(C(F)(F)F)cc3)c(C(=O)N[C@H](C(=O)O)C3CCCC3)ccc2c1` [Example 187, (S)-2-(6-amino-1-((4-(trifluoromethyl)benzyl)oxy)-2-naphthamido)-2-cyclopentylacetic Acid] were 11.4 µM and 70.8%. Taken in the same sequence, the figures for `O=C(N[C@@H](Cc1ccc(C(F)(F)F)cc1)C(=O)O)c1ccc2ccccc2c1OCc1ccc(OC(F)(F)F)cc1` [Example 190, (S)-2-(1-((4-(trifluoromethoxy)benzyl)oxy)-2-naphthamido)-3-(4-(trifluoromethyl)phenyl)propanoic Acid] were 7 µM and 17.9%. In turn, `O=C(N[C@@H](Cc1ccc(C(F)(F)F)cc1)C(=O)O)c1ccc2ccccc2c1OCC1CCCCC1` [Example 200, (S)-2-(1-(cyclohexylmethoxy)-2-naphthamido)-3-(4-(trifluoromethyl)phenyl)propanoic Acid] displayed an EC50 of 20.5 µM and a maximal response (Emax) of 65.4%. For the compound `O=C(N[C@@H](Cc1ccc(C(F)(F)F)cc1)C(=O)O)c1ccc2cc(F)ccc2c1OCC1CCCCC1` [Example 204, (S)-2-(1-(cyclohexylmethoxy)-6-fluoro-2-naphthamido)-3-(4-(trifluoromethyl)phenyl)propanoic Acid], the Emax came to 6.8%. `O=C(N[C@H](C(=O)O)C(c1ccccc1)c1ccccc1)c1ccc2ccccc2c1OCc1ccc(Cl)c(Cl)c1` [Example 207, (S)-2-(1-((3,4-dichlorobenzyl)oxy)-2-naphthamido)-3,3-diphenylpropanoic Acid] gave a concentration for a half-maximal effect (EC50) of 20.4 µM and an Emax of 40.4%. The matching figures for `O=C(N[C@H](C(=O)O)C(c1ccccc1)c1ccccc1)c1ccc2cc(F)ccc2c1OCc1ccc(Cl)c(Cl)c1` [Example 209, (S)-2-(1-((3,4-dichlorobenzyl)oxy)-6-fluoro-2-naphthamido)-3,3-diphenylpropanoic Acid]: 0.4 µM and 71%. The matching figures for `O=C(N[C@@H](Cc1ccc(C(F)(F)F)cc1)C(=O)O)c1ccc2ccccc2c1OCc1nc2ccccc2s1` [Example 213, (S)-2-(1-(benzo[d]thiazol-2-ylmethoxy)-2-naphthamido)-3-(4-(trifluoromethyl)phenyl)propanoic Acid]: 13.1 µM and 87.2%.

In turn, `CC(C)C#CCOc1c(C(=O)N[C@H](C(=O)O)C(C)(C)C)ccc2cc(F)ccc12` [Example 224, (2S)-2-[[6-fluoro-1-(4-methylpent-2-ynoxy)naphthalene-2-carbonyl]amino]-3,3-dimethyl-butanoic Acid] registered an EC50 of 12.8 µM and an Emax of 119%. The matching figures for `Cc1ccc2ccc(C(=O)N[C@H](C(=O)O)C3(C)CC3)c(OCc3ccc(C(F)(F)F)cc3)c2c1` [Example 229, (2S)-2-(1-methylcyclopropyl)-2-[[7-methyl-1-[[4-(trifluoromethyl)phenyl]methoxy]naphthalene-2-carbonyl]amino]acetic Acid]: 1.8 µM and 177%. The matching figures for `CC(C)(C)[C@H](NC(=O)c1ccc2ccccc2c1OCc1ccncc1)C(=O)O` [Example 232, (2S)-3,3-dimethyl-2-[[1-(4-pyridylmethoxy)naphthalene-2-carbonyl]amino]butanoic Acid]: 3.1 µM and 8.5%. The matching figures for `CC(C)C#CCOc1c(C(=O)N[C@H](C(=O)O)C(C)(C)C)ccc2ccccc12` [Example 235, (2S)-3,3-dimethyl-2-[[1-(4-methylpent-2-ynoxy)naphthalene-2-carbonyl]amino]butanoic Acid]: 15.2 µM and 211%.

The compound `CC(C)(C)C#CCOc1c(C(=O)N[C@H](C(=O)O)C(C)(C)C)ccc2cc(F)ccc12` [Example 266, (2S)-2-[[1-(4,4-dimethylpent-2-ynoxy)-6-fluoro-naphthalene-2-carbonyl]amino]-3,3-dimethyl-butanoic Acid] yielded a half-maximal effective concentration (EC50) of 5.4 µM and an Emax of 149%. Taken in the same sequence, the figures for `CC(C)(C)C#CCOc1c(C(=O)N[C@H](C(=O)O)C(C)(C)C)ccc2ccccc12` [Example 267, (2S)-2-[[1-(4,4-dimethylpent-2-ynoxy)naphthalene-2-carbonyl]amino]-3,3-dimethyl-butanoic Acid] were 3.4 µM and 288%. In turn, `CC(C)(C)[C@H](NC(=O)c1ccc2ccccc2c1OCC1(C(F)(F)F)CC1)C(=O)O` [Example 268, (2S)-3,3-dimethyl-2-[[1-[[1-(trifluoromethyl)cyclopropyl]methoxy]naphthalene-2-carbonyl]amino]butanoic Acid] returned an EC50 of 15.4 µM and a maximum response (Emax) of 74%.

Take `CC(C)(C)[C@H](NC(=O)c1ccc2ccccc2c1OCC#CC1CC1)C(=O)O` [Example 270, (2S)-2-[[1-(3-cyclopropylprop-2-ynoxy)naphthalene-2-carbonyl]amino]-3,3-dimethyl-butanoic Acid]: a half-maximal response (EC50) required 12.2 µM and the Emax was 166%. Regarding `Cc1cc(F)c2ccc(C(=O)N[C@H](C(=O)O)C(C)(C)C)c(OCc3ccc(OC(F)(F)F)cc3)c2c1` [Example 271, (2S)-2-[[5-fluoro-7-methyl-1-[[4-(trifluoromethoxy)phenyl]methoxy]naphthalene-2-carbonyl]amino]-3,3-dimethyl-butanoic Acid], a half-maximal response (EC50) required 0.2 µM and the Emax came to 261%.

The record behind these values is US12630498B2 (Genzyme Corporation, priority 2019, dated 2026).
